Earlier results as cited in patent publication US20250064725A1, “OPHTHALMIC PREPARATION OF TYROSINE KINASE INHIBITOR, AND PREPARATION METHOD THEREFOR AND USE THEREOF” (CHENGDU RUIMU BIOPHARMACEUTICALS CO., LTD., priority 2021, published 2025).

Experiments:
[1] = oral administration of tablets
[2] = tested on: age-related macular degeneration; settings: oral tablets 50, 100, 200 mg/day

Row | Structure (SMILES) | Incidence rate of diarrhea [1] [%] | Incidence rate of fatigue [1] [%] | Incidence rate of hypertension [1] [%] | Incidence rate of loss of appetite [1] [%] | Incidence rate of nausea [1] [%] | Toxicity outcome of the clinical trial [2] | Visual improvement ([2]; after 6 months)
1 | CNC(=O)c1cc(Oc2ccc(NC(=O)Nc3ccc(Cl)c(C(F)(F)F)c3)cc2)ccn1 [sorafenib] | 53 | 32 | 29 | 29 | 22 | – | –
2 | Cc1[nH]c(/C=C2\C(=O)Nc3ccc(F)cc32)c(C)c1C(=O)N[C@H]1CCN(C(=O)N(C)C)C1 [Example X-82] | – | – | – | – | – | suspended due to its toxicity | non-inferior
3 | CNC(=O)c1ccccc1Sc1ccc2c(/C=C/c3ccccn3)n[nH]c2c1 [axitinib] | 55 | 39 | 40 | 34 | 32 | – | –
